{"source": "patent US8946201B2", "about": "“Methods for inhibiting TGF-β” (Saint Louis University, priority 2007, dated 2015)", "key": {"[1]": {"test_system": "Smad2 phosphorylation stimulated by TGF-β1", "experiment": "TGF-β1-stimulated Smad2 phosphorylation, Western blot, BAEC", "assay_type": "cell-based, bovine", "conditions": "25 μg/ml, 37° C. 1 hr, then 50 pM TGF-β1 0.5 hr", "procedure": "Cells were treated with increasing concentrations of cholesterol, as indicated (A, B, C), 50 μg protein/ml LDL (D), 5 μg protein/ml VLDL (D) or 50 μg/ml cholesterol (E) at 37° C. for 1 hr and then further incubated with 50 pM TGF-β1 for 30 min. Phosphorylated Smad2 (P-Smad2) and total Smad2 in the cell lysates were analyzed by 7.5% SDS-PAGE and followed by immunoblot analysis using anti-P-Smad2 and anti-Smad2 antibodies. A representative of a total of 3 analyses is shown (top). The quantitative analysis of the immunoblots is shown (bottom). […] Smad2 nuclear translocation was analyzed by indirect immunofluorescent staining using P-Smad2 antibody and rhodamine-labeled 2nd antibody (E). Rhodamine fluorescence represents P-Smad2 staining (a,b,c) whereas the nuclei were stained by DAPI staining (d,e,f).\nCells grown to near confluence on 12-well cluster dishes were treated with cholesterol or LDL in serum-free DMEM (vol.=0.5 ml/well) at 37° C. for 1 hr. […] Treated cells were lysed and cell lysates were analyzed by 7.5% SDS-PAGE and Western blot analysis using anti-Smad2, anti-P-Smad2, anti-caveolin-1, anti-TβR-I (alk5) or anti-TβR-II antibodies as described previously (30). […]\nIt has been reported that TGF-β responsiveness is determined by TGF-β partitioning between lipid raft/caveolae-mediated and clathrin-mediated endocytosis. […]"}, "PAI-1 expression": {"test_system": "PAI-1 expression", "experiment": "TGF-β1-induced PAI-1 expression, Northern blot, NRK cells", "assay_type": "cell-based, rat", "conditions": "50 μg/ml, TGF-β1 2 to 100 pM", "procedure": "(A, B, C, D, E, F) Cells were treated with 50 μg/ml cholesterol (A, B, C, D) and 50 μg/ml LDL (D) at 37° C. for 1 hr or with 1 μM fluvastatin or lovastatin (E) or several concentrations of fluvastatin (F) at 37° C. for 16 hr and then further incubated with increasing concentrations (as indicated) of TGF-β1 (A, B, C, E) or 50 pM TGF-β1 (D,F) for 2 hr. Northern blot analysis of PAI-1 and G3PDH was performed. A representative of a total of three analyses is shown (a). The relative intensities of the transcripts were quantified with a PhosphoImager. The ratio of the relative intensities of PAI-1 and G3PDH transcripts in cells treated without TGF-β1 and cholesterol, LDL or statins on the blot was taken as 1 fold or 100% of PAI-1 expression. The quantitative data from three independent analyses is shown (b). […] (G) Mv1Lu cells stably expressing a luciferase reporter gene driven by the PAI-1 promoter (MLECs-clone 32) were treated with increasing concentrations (as indicated) of cholesterol at 37 EC for 1 hr (a) or with 1 μM lovastatin at 37° C. for 16 hr (b) and then further incubated with 50 pM TGF-β for 7 hr. The luciferase activity in cells treated without cholesterol was taken as 100% (a). […] (H) Cells were incubated with 0.0625 and 0.125 pM TGF-β1 in the presence of increasing concentrations of cholesterol, as indicated. […] The experiments were carried out in triplicate."}, "TβR-I and TβR-II": {"test_system": "TβR-I and TβR-II", "experiment": "125I-TGF-β1 affinity labeling, NRK cells", "assay_type": "cell-based, rat", "conditions": "1 hr", "procedure": "(B, C, D, E) Cells were treated with increasing concentrations of cholesterol in the presence (C) and absence (B, D, E) of 0.2% β-CD, as indicated. After 1 hr at 37° C., ^125I-TGF-β1 affinity labeling of TβR-I and TβR-II in cells was performed at 0° C. ^125I-TGF-β1 affinity-labeled TβR-I and TβR-II were analyzed by 7.5% SDS-PAGE and autoradiography or quantified with a PhosphoImager. A representative of a total of three analyses is shown (top). The bracket indicates the locations of ^125I-TGF-β affinity-labeled TβR-I and TβR-II. The relative intensities of ^125I-TGF-β1 affinity-labeled TβR-I and TβR-II in cells treated without cholesterol were taken as 100%. The quantitative data from three analyses is shown (bottom).\nAfter cross-linking, cell lysates were analyzed by 7.5% SDS-PAGE and autoradiography or quantified by a PhosphoImager. For all experiments, cholesterol or cholesterol derivatives were prepared as the stock solution with a concentration of 25 mg/ml in ethanol. The final concentration of ethanol in the medium was 0.2% (by vol.)."}}}
{"smiles": "CC(C)CCC[C@@H](C)[C@H]1CC[C@H]2[C@@H]3CC=C4C[C@@H](O)CC[C@]4(C)[C@H]3CC[C@]12C", "note": "[cholesterol]", "values": [{"measurement": "suppression of Smad2 phosphorylation stimulated by TGF-β1", "setting": "[1]", "value": 90, "unit": "%"}, {"measurement": "suppression of TGF-β1-stimulated PAI-1 expression", "setting": "PAI-1 expression", "value": "60-65%"}, {"measurement": "increase of 125I-TGF-β1 binding to TβR-I", "setting": "TβR-I and TβR-II; 50 μg/ml", "value": "~5.7", "unit": "fold"}, {"measurement": "ratio of TβR-II/TβR-I", "setting": "TβR-I and TβR-II; 50 μg/ml, 2.0 untreated", "value": 0.35}, {"measurement": "effect on binding of 125I-TGF-β1 to TβR-II", "setting": "TβR-I and TβR-II; increasing concentrations", "value": "did not significant alter"}]}
